From US20120149697A1 (priority 2009, published 2012)

Tested on: ScGT1 cells
Conditions: for cells remained viable: mouse

Substance	cell viability (cytotoxicity effect)	cells remained viable
fulvic acids [FA]	remain viable	94%
humic acids [HA]	remain viable	96%
